Measured values: patent publication US5719152A, “Tricyclic quinoxalinedione derivatives” (Sumitomo Pharmaceuticals Co., Ltd., priority 1993, dated 1998)

Columns and labels:
NMDA-induced seizure = NMDA-induced seizure model; assay type: in vivo; settings: Mus musculus, ip, 0.5 h; mice; test compound intraperitoneal 30 min before NMDA (5 nmol) i.c.v.; ten mice; read-out: ED50, inhibition of NMDA-induced tonic seizures
Procedure: The compounds of the present invention attenuated strongly NMDA-induced seizure under systemic administrations in the following in vivo model.
NMDA-induced seizure model
Thirty min later following intraperitoneal administration of the test compound (0.3~30 mg/kg) into each of ten mice tested, NMDA (5 nmol) was administered intracerebroventricularly (i.c.v.). […] The activity of the test compound may be shown by the ED50 value.

[1] = tested on: strychnine-insensitive glycine modulatory site of NMDA (N-methyl D-aspartate) receptors; settings: 0.1 mM; rat brain synaptic membrane preparation
Procedure: The activities of the compounds were measured by [^3 H] DCKA and [^3 H] glycine binding inhibition studies as illustrated below.
[^3 H] glycine binding studies
A crude rat brain synaptic membrane preparation was washed three times by centrifugation at 50,000×g for 30 min with 50 mM tris acetate (pH 7.4). The pellets obtained were suspended in 0.23M sucrose solution and stored at -80° C. For binding studies, the frozen suspension was thawed, treated with 0.08% triton X-100 at 2° C. for 10 min, and washed twice by the centrifugation as mentioned above. The synaptic membrane thus prepared (ca. 150~200 μg of protein) was incubated with 10 nM [^3 H] glycine (1.11 TBq/mmol) and the test compound (10 ng/mL~0.1 ng/mL) at 2° C. for 10 min in 50 mM tris acetate (pH 7.4). The incubation was terminated by suction filtration using Whatman GF/B glass filter. The radioactivities bound to the membrane on the filter was measured by scintillation counting. Non-specific binding was calculated by the radioactivities measured under the incubations in the presence of 0.1 mM D-serine.

Row | SMILES | ED50 (NMDA-induced seizure) | inhibition of [3H] glycine binding [1]
1 | Cl.NCc1ccc(NC(=O)C[C@@H]2CCc3cc(Cl)cc4[nH]c(=O)c(=O)n2c34)c(CC(=O)O)c1 [Example 11, (S)-9-Chloro-5-[p-aminomethyl-o-(carboxymethyl)phenylcarbamoylmethyl]-6,7-dihydro-1H, 5H-pyrido[1,2,3-de]quinoxaline-2,3-dione hydrochloride] | 3.1 mg/kg | 
2 | Cl.NCc1ccc(NC(=O)C[C@@H]2CCc3cc(Br)cc4[nH]c(=O)c(=O)n2c34)c(OCC(=O)O)c1 [Example 35, (S)-9-Bromo-5-[p-aminomethyl-o-(carboxymethoxy)phenylcarbamoylmethyl]6,7-dihydro-1H, 5H-pyrido[1,2,3-de]quinoxaline-2,3-dione hydrochloride] | 2.1 mg/kg | 
3 | Cl.NCc1ccc(NC(=O)C[C@@H]2CCc3cc(Cl)cc4[nH]c(=O)c(=O)n2c34)c(OCC(=O)O)c1 [Example 31, (S)-9-Chloro-5-[p-aminomethyl-o-(carboxymethoxy)phenylcarbamoylmethyl]-6,7-dihydro-1H, 5H-pyrido[1,2,3-de]quinoxaline-2,3-dione hydrochloride] | 1 mg/kg | 
4 | O=C1C[C@@H]2OCC=C3CN4CC[C@]56c7ccccc7N1[C@H]5[C@H]2[C@H]3C[C@H]46 [strychnine] |  | not inhibited
